In patent publication US20040259192A1, “Method for cleaving the human growth hormone gh” (priority 2001, published 2004):
Entries after “also recorded” stand apart in the source; their conditions may differ. One block for each compound: values may come before it. Square brackets hold non-standard residues; d marks the D form. Ends that are not written are not given here. * marks the point of attachment. Sta = CC(C)C[C@H](N)[C@@H](O)CC(=O)O; Isovaleryl = CC(C)CC(=O)*

How the values were obtained:
MMP-3 [1] = target: MMP-3 (Homo sapiens, UniProt P08254); test: activation or inhibition of MMP-3 by substances; type: biochemical; parameters: inhibition (MMP-3): dose or concentration left out as unconfirmed; conditions: for inhibition at 10 µM: with 10 μM
MMP-3 [2] = test: cleavage of human GH by MMP-3, SDS-PAGE, with or without protease inhibitors; type: biochemical; conditions: for influence on GH cleavage by MMP-3: inhibitor added in place of phenanthroline, concentration not given
Method: (§1) Human GH (SIGMA S-4776) was incubated with the recombinant catalytic domain of MMP-3 or with the activated full-length enzyme MMP-3 (EC 3.4.24.17) at a molar ratio of 50:1 at 37° C. overnight. 100 mM Tris-HCl, pH 7.5/100 mM NaCl/10 mM CaCl2/0.05% (w/v) Brij 35 served as incubation buffer. The following samples served as a control:
1. GH incubated with the same volume of buffer instead of MMP-3,
2. GH incubated with MMP-3 in the presence of 1 mM 1,10-phenanthroline (SIGMA P-9375) as MMP inhibitor.
(§2) The reaction is stopped by the addition of ¼ volume of 5 times reducing Laemmli buffer and incubation at 90° C. for 4 minutes. The samples were subsequently separated on a 15% SDS polyacrylamide gel according to a generally known method. The proteins were prepared by means of coomassie or silver staining.

MMP-14 = MMP-14 (Homo sapiens, UniProt P50281); test: cleavage of human GH by MMP-14, SDS-PAGE; type: biochemical; conditions: method of Example 2
Method: as §1, §2
(§3) In accordance with the method shown in Example 2, other human MMPs were also tested for checking the specificity of the GH cleavage by MMP-3.

[3] = system: Human microvascular endothelial cells (HUVEC); test: proliferation of human microvascular endothelial cells (cell number, Coulter Counter); type: cell-based; conditions: 24 hours
Method: Human microvascular endothelial cells (HUVEC) of the 3rd passage were kindly provided by Dr. Jurgen Salvetter (Leipzig University). These cells were prepared according to the information furnished by Norman and Karasek (49). HUVEC were used up to the 9th passage for the proliferation experiments. HUVEC were tested up to confluence in RPMI 1640 medium with additions of 10% (v/v) tested endotoxin-deficient fetal calf serum (Biochrom), 2 mM L-glutamine (GIBCO), 25 μg/ml endothelial cell growth supplement (SIGMA), 50 μg/ml streptomycin plus 50 units/ml penicillin (Life Technologies). The confluent cells were harvested by means of 5% trypsin/0.2% EDTA (BIOCHROM) at 37° C. for 5 minutes. A suspension of 10,000 cells in RPMI 1640 medium plus 2% (v/v) tested endotoxin-deficient fetal calf serum (Biochrom), 2 mM L-glutamine (GIBCO), 50 μg/ml streptomycin plus 50 units/ml penicillin (Life Technologies) were transferred to 24-well plates coated with 30 μg/ml type I collagen from calf skin (IBFB). […] The cells were washed with the same medium after 24 hours of incubation and removed using trypsin/EDTA and the cell number was determined in a Coulter Counter. […]

MMP-9 = MMP-9 (Homo sapiens, UniProt P14780); test: cleavage of human GH by MMP-9, SDS-PAGE; type: biochemical; conditions: activated MMP-9; long incubation periods, different enzyme concentrations
Method: It was tested in an informing preliminary test whether MMP-9 can cleave human GH in vitro. As shown in Example 2, GH was in this case incubated with activated MMP-9 and subjected to PAA gel electrophoresis. […]
as §1, §2, §3

MMP-8 = MMP-8 (Homo sapiens, UniProt P22894); test: cleavage of human GH by MMP-8, SDS-PAGE; type: biochemical; conditions: method of Example 2
Method: as §1, §2, §3

MMP-2 = target: T1, MMP-2 (Homo sapiens, UniProt P08253); test: cleavage of human GH by MMP-2; type: biochemical
T1 sequence (P08253 110-660): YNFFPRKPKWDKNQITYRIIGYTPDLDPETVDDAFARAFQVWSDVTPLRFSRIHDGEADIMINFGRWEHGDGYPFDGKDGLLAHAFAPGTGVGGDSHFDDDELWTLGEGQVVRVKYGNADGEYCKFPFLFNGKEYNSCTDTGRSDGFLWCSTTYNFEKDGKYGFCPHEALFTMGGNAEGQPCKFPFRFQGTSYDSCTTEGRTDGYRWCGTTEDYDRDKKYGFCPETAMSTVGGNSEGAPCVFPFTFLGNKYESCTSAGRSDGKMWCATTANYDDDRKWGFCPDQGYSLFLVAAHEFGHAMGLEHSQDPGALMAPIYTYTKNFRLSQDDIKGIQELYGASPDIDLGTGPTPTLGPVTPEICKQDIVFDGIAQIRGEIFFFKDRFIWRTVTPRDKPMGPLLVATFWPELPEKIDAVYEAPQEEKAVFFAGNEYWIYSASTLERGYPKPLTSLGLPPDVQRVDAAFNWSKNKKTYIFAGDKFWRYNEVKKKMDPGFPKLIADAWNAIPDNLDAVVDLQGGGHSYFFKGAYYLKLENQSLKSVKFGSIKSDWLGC

Sequence of MMP-3 (Homo sapiens, UniProt P08254) (P08254 100-477): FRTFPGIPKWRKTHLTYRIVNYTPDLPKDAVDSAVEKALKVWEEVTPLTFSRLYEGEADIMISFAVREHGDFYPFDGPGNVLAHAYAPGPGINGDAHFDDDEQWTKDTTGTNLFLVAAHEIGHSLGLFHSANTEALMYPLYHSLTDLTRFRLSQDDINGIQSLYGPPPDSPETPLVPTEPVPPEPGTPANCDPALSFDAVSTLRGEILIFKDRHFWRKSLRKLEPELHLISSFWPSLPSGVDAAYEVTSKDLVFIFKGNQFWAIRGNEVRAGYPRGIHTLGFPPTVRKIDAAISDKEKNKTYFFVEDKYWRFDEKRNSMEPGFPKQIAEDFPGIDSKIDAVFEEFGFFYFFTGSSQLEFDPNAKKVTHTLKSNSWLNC
Sequence of MMP-9 (P14780 107-707 limits assumed): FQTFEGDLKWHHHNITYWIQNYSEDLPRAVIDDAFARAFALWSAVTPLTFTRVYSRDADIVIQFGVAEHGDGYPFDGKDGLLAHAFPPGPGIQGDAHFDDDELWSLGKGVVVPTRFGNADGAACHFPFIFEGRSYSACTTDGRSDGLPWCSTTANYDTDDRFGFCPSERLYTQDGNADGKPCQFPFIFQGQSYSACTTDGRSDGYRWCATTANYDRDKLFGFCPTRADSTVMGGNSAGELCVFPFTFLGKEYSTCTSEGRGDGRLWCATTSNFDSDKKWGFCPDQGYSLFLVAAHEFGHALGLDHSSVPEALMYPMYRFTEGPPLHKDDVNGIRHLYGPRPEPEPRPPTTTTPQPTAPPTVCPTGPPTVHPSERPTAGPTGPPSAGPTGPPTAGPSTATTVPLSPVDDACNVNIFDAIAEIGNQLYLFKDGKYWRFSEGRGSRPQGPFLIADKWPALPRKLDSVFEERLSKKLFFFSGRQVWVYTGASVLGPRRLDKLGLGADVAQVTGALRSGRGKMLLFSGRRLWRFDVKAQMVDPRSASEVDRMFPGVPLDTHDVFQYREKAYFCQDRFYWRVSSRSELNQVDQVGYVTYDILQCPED
Sequence of MMP-8 (P22894 101-467): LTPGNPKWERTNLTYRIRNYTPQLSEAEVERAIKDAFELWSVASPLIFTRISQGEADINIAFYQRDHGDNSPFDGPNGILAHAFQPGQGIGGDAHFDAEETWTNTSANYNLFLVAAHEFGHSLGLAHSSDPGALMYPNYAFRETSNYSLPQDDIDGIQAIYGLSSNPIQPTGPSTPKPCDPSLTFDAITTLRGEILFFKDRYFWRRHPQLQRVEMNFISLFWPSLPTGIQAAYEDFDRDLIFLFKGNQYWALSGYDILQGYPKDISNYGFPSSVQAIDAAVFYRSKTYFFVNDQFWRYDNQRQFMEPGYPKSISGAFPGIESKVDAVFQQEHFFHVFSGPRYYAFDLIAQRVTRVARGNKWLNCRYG

Compound: O=c1[nH]c(=O)n(CC(S)CS)c2ccccc12 (racemic) [(R,S)-1-(2′,3′-dimercapto-prop-1′-yl)quinazoline-2,4(1H,3H)-dione]
- inhibition at 4 µM (MMP-3 [1]; with 4.0 μM): 75%

Compound: CC(C)C[C@H](NC(=O)[C@H]1O[C@@H]1C(=O)O)C(=O)NCCCCN=C(N)N (relative stereo) [E-64, trans-epoxysuccinyl-L-leucylamido-(4-guanidino)butane]
- influence on GH cleavage by MMP-3 (MMP-3 [2]): no influence

Compound: O=S1(=O)NC(NCCS)=Nc2ccccc21 [3-(2′-mercaptoethylamino)-2H-1,2,4-benzothiadiazine-1,1-dioxide]
- activation of MMP-3 (MMP-3 [1]): about 20%

Compound: Cn1c(=O)n(CCCS)c(=O)c2ccccc21 [3-(3-mercaptopropyl)-1-methyl-(1H,3H)quinazoline-2,4-dione]
- activation of MMP-3 (MMP-3 [1]): about 20%

Compound: c1cnc2c(c1)ccc1cccnc12 [phenanthroline, 1,10-phenanthroline]
- GH cleavage by MMP-3 in the presence of inhibitor (MMP-3 [2]; 1 mM inhibitor, GH:MMP-3 50:1, 37° C. overnight, pH 7.5): not cleaved

Compound: Isovaleryl-VV[Sta]A[Sta] [pepstatin A]
- influence on GH cleavage by MMP-3 (MMP-3 [2]): no influence

Compound: bFGF: human recombinant bFGF (BIOCHROM), positive control [reference compound]
- proliferation of HUVEC ([3]; 20 ng/ml): stimulates the proliferation

Now from value to compound, other results behind:

- inhibition at 10 µM (MMP-3 [1]): 50%
Compound: O=c1c2ccccc2nc2n1CC(CS)S2 (racemic) [(R,S)-2-mercaptomethyl-2,3-dihydro-thiazolo[2,3-b]quinazoline-5-one]

- inhibition (MMP-3) (MMP-3 [1]): 60%
Compound: CC1(CS)Cn2c(nc3ccccc3c2=O)S1 (racemic) [(R,S)-2-mercaptomethyl-2-methyl-2,3-dihydro-thiazolo[2,3-b]quinazoline-5-one]

- inhibition at 10 µM (MMP-3 [1]): 80%
Compound: O=c1c2ccc(Cl)cc2nc2n1CC(CS)S2 (racemic) [(R,S)-8-chloro-2-mercaptomethyl-2,3-dihydro-thiazolo[2,3-b]quinazoline-5-one]

- cleavage of GH by MMP-14 (MMP-14): no degrading effect
- cleavage of GH by MMP-8 (MMP-8): no degrading effect
- cleavage of GH by MMP-2 (MMP-2): no, or only minor, degradative effects
Compound: GH: Human GH, 22 kDa peptide hormone composed of a single polypeptide chain (SIGMA S-4776)
- proliferation of HUVEC ([3]; 40 ng/ml): marked proliferative effect
- cleavage of GH by MMP-9 (MMP-9): not possible to prove cleavage; also recorded: no degrading effect
- cleavage of GH by MMP-3 (MMP-3 [2]; molar ratio 50:1, 37° C. overnight, pH 7.5): cleaved by MMP-3 into two fragments of 16 kDa and 6 kDa; also recorded: cleaves GH into the typical 16 kDa fragment
